How the values were obtained:
[1] = biological target: Gamma-aminobutyric acid receptor subunit alpha-1/alpha-2/beta-2/gamma-2 (Homo sapiens, UniProt P14867+P18507+P47869+P47870); format: functional, cell-based
[2] = biological target: T1, Muscarinic acetylcholine receptor M1 (Homo sapiens, UniProt P11229); format: functional
T1 sequence (P11229 whole entry): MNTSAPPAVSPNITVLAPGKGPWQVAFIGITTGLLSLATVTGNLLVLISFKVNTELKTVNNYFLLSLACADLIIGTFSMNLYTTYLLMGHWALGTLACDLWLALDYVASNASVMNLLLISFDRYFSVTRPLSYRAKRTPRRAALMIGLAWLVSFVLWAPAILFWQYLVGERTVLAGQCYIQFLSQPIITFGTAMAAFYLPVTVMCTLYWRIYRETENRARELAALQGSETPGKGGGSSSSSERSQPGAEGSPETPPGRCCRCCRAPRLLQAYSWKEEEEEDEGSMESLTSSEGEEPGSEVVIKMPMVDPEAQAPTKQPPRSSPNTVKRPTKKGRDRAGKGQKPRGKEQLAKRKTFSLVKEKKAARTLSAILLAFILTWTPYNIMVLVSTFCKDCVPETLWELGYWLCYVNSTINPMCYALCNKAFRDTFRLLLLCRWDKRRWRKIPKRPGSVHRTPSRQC

Histamine H1 receptor = Histamine H1 receptor (Homo sapiens, UniProt P35367)
[3] = biological target: T2, Endothelin receptor type B (Homo sapiens, UniProt P24530)
T2 sequence (P24530 whole entry): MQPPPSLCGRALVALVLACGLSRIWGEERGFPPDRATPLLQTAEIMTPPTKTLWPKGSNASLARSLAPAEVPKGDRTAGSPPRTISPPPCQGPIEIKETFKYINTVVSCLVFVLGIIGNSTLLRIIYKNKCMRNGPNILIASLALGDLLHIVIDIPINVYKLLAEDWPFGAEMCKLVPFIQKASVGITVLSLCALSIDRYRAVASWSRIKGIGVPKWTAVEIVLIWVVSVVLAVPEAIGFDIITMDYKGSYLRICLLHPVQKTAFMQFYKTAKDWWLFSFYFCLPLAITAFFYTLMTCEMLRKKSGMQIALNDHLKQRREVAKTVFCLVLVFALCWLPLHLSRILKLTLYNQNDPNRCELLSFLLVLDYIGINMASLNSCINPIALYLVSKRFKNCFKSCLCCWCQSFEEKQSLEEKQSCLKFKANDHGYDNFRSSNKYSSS

Glucagon receptor = Glucagon receptor (Homo sapiens, UniProt P47871)
Histamine H2 receptor = Histamine H2 receptor (Homo sapiens, UniProt P25021)
[4] = biological target: T3, 5-hydroxytryptamine receptor 1A (Homo sapiens, UniProt P08908)
T3 sequence (P08908 whole entry): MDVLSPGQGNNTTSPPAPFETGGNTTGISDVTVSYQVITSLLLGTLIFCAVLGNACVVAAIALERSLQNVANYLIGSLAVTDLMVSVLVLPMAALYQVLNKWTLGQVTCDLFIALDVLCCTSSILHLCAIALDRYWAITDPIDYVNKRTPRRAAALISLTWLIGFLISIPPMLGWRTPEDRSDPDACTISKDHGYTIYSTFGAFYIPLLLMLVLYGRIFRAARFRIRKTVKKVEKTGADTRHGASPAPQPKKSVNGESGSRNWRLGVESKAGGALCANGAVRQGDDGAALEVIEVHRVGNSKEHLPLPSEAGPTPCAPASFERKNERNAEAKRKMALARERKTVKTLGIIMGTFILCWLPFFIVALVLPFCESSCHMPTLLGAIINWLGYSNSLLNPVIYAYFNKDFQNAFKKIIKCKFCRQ

[5] = biological target: T4, Muscarinic acetylcholine receptor M2 (Homo sapiens, UniProt P08172)
T4 sequence (P08172 whole entry): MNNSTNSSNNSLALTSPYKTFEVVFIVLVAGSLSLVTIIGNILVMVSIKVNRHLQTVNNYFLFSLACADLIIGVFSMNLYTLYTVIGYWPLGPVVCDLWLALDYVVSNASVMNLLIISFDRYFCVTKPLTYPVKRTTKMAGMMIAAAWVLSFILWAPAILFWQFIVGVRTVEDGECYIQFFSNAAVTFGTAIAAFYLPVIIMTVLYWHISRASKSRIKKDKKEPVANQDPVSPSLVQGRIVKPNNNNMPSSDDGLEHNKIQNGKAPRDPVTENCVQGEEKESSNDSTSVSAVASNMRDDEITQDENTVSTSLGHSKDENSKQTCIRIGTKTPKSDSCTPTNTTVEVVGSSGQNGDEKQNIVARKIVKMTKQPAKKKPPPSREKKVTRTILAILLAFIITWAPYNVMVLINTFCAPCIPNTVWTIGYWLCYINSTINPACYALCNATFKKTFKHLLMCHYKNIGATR

Androgen receptor = biological target: T5, Androgen receptor (Homo sapiens, UniProt P10275)
T5 sequence (P10275 whole entry): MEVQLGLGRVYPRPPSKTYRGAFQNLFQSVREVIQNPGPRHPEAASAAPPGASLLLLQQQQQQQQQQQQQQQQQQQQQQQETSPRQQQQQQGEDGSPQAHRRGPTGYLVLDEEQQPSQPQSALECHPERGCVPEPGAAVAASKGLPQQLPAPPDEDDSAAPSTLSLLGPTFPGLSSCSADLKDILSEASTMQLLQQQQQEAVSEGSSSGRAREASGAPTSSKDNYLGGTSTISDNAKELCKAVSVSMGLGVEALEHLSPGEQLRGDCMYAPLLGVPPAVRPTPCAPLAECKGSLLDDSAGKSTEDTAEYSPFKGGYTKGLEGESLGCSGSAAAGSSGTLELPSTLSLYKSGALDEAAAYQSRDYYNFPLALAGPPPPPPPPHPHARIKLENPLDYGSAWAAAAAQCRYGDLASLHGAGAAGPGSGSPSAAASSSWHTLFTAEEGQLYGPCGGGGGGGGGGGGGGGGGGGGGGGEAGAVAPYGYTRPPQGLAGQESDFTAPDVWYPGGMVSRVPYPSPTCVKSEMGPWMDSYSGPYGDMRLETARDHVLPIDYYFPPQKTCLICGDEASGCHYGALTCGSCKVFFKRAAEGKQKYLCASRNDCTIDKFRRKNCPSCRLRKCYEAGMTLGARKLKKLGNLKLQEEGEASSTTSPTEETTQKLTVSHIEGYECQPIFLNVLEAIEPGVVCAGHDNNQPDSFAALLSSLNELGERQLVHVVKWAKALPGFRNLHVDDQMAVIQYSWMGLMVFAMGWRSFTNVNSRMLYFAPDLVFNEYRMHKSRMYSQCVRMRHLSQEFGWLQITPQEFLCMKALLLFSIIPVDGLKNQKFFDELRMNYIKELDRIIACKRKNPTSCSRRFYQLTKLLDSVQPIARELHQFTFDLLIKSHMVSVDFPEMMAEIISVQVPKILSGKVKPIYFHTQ
Note: assay procedure not described here.

Histamine H2 receptor, sequence (P25021 whole entry): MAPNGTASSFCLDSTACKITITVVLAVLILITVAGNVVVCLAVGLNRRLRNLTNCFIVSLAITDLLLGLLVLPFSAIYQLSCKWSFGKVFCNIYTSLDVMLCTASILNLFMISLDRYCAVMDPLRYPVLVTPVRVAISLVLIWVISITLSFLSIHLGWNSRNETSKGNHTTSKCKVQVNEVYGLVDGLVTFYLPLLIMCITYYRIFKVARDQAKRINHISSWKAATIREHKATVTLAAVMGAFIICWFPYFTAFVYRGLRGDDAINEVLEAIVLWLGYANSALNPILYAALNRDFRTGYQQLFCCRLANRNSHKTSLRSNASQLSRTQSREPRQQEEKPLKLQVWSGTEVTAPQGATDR
Histamine H1 receptor, sequence (P35367 whole entry): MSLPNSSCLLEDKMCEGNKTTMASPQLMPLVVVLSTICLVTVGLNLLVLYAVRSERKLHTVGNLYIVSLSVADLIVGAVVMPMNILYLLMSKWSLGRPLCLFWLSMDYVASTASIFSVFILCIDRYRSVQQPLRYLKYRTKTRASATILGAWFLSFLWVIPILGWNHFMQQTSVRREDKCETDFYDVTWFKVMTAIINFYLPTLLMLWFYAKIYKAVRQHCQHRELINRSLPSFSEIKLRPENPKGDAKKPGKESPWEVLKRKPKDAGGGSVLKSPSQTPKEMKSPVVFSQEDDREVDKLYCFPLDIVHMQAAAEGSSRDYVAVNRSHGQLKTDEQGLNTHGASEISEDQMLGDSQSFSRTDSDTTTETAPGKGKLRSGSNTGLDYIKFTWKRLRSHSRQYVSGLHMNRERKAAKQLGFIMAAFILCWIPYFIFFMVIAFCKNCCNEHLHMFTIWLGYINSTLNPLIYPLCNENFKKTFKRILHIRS
Gamma-aminobutyric acid receptor subunit alpha-1/alpha-2/beta-2/gamma-2, sequence (P14867 whole entry): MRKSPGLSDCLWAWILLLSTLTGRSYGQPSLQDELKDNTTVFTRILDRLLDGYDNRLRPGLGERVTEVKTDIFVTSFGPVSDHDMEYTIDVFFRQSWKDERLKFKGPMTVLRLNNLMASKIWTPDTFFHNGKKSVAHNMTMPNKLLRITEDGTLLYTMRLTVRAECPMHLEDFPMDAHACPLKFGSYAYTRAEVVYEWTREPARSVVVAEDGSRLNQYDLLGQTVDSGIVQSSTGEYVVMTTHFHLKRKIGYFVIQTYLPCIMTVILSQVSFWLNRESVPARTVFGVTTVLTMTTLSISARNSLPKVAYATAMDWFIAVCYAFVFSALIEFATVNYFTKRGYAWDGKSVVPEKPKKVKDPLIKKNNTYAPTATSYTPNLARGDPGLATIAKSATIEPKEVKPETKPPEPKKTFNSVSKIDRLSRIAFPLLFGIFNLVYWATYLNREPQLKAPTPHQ
Gamma-aminobutyric acid receptor subunit alpha-1/alpha-2/beta-2/gamma-2, sequence (P47870 whole entry): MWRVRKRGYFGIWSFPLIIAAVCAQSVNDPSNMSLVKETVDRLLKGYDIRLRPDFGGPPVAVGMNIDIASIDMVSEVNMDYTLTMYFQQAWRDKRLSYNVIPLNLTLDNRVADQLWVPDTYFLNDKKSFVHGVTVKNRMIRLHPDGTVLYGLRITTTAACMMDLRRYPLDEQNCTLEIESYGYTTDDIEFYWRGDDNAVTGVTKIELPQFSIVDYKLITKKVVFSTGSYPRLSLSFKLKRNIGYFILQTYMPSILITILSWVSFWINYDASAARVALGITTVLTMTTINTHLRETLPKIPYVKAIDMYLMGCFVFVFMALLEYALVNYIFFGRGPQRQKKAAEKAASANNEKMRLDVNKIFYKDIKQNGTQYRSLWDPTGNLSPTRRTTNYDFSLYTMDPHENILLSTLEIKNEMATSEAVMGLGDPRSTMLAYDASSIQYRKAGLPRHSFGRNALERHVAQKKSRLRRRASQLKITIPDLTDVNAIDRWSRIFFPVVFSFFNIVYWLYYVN
Gamma-aminobutyric acid receptor subunit alpha-1/alpha-2/beta-2/gamma-2, sequence (P18507 whole entry): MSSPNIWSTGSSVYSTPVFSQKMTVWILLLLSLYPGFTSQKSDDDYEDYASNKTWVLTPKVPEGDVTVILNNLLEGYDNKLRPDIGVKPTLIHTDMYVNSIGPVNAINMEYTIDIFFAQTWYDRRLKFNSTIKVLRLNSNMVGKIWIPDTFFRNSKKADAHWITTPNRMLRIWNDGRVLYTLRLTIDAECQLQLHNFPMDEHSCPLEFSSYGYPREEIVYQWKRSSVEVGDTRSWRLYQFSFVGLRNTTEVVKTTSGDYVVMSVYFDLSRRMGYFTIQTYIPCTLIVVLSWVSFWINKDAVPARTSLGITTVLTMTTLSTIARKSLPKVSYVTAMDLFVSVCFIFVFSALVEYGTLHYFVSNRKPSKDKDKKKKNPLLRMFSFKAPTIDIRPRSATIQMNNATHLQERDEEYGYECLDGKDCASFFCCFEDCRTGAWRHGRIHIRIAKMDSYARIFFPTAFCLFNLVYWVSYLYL
Gamma-aminobutyric acid receptor subunit alpha-1/alpha-2/beta-2/gamma-2, sequence (P47869 whole entry): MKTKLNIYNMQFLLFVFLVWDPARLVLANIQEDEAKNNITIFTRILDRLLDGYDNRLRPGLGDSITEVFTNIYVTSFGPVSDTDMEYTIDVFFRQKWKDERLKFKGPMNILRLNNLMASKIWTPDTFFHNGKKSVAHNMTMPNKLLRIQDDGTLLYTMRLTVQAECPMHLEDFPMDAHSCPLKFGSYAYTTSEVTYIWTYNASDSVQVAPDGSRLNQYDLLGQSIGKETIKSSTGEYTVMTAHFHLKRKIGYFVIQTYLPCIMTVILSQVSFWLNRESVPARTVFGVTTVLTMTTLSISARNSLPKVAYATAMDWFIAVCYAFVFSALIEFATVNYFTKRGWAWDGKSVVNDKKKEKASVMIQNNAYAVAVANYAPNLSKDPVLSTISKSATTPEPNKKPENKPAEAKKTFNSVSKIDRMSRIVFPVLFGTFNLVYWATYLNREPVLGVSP
Glucagon receptor, sequence (P47871 whole entry): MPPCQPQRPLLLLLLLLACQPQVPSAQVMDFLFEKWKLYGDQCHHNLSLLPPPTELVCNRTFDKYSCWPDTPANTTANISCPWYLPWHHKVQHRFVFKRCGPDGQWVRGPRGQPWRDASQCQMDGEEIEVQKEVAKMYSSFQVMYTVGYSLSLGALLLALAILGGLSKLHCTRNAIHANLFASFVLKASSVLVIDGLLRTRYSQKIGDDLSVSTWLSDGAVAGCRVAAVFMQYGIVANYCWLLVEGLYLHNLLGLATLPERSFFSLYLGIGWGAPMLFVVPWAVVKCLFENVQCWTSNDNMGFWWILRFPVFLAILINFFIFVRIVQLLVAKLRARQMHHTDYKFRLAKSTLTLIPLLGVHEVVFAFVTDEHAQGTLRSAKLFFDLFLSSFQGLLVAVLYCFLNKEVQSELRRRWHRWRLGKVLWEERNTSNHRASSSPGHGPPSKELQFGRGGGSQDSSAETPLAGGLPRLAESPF

SMILES	AC50 [1] [µM]	AC50 [2] [µM]	AC50 (Histamine H1 receptor) [µM]	AC50 [3] [µM]	AC50 (Glucagon receptor) [µM]	AC50 (Histamine H2 receptor) [µM]	AC50 [4] [µM]	AC50 [5] [µM]	AC50 (Androgen receptor) [µM]
CN1C[C@H](C(=O)N[C@]2(C)O[C@@]3(O)[C@@H]4CCCN4C(=O)[C@H](Cc4ccccc4)N3C2=O)C=C2c3cccc4[nH]cc(c34)C[C@H]21 [ERGOTAMINE]	> 30								
CC(S)C(=O)NCC(=O)O (stereo unspecified) [TIOPRONIN]	> 30	> 30	> 30						
CN(CC1(C)CCCO1)S(=O)(=O)c1ccc(Cl)c(S(N)(=O)=O)c1 (stereo unspecified) [MEFRUSIDE]	> 30	> 30	> 30						
C[C@@H](NCCCc1cccc(C(F)(F)F)c1)c1cccc2ccccc12	> 30	17	16						
CCN1CCN(Cc2ccc(Nc3ncc(F)c(-c4cc(F)c5nc(C)n(C(C)C)c5c4)n3)nc2)CC1 [ABEMACICLIB]	> 30	> 30	23						
CCCN(CCC)C(=O)Cc1c(-c2ccc(Cl)cc2)nc2ccc(Cl)cn12 [ALPIDEM]	> 10	> 30	> 30	> 10	> 10	> 10	> 10	> 10	
COc1cc2nccc(Oc3ccc(NC(=O)C4(C(=O)Nc5ccc(F)cc5)CC4)cc3)c2cc1OC [CABOZANTINIB]	> 30	> 30	> 30						> 30
C[C@H](CCC(=O)O)[C@H]1CC[C@H]2[C@@H]3[C@@H](O)C[C@@H]4C[C@H](O)CC[C@]4(C)[C@H]3CC[C@]12C [URSODIOL]	> 30	> 30	> 30						
CN(C)CCC[C@@]1(c2ccc(F)cc2)OCc2cc(C#N)ccc21 [ESCITALOPRAM]	> 30								
CN(C)CCc1c[nH]c2ccc(Cn3cncn3)cc12 [RIZATRIPTAN]	> 30	> 30	5.79	> 30	> 30	> 10		> 10	
COc1ccccc1OCCNCC(O)COc1cccc2[nH]c3ccccc3c12 (stereo unspecified) [CARVEDILOL]				> 30	> 30	1.56	0.02	> 10	
C[C@@H](Oc1cc(-c2cnn(C3CCNCC3)c2)cnc1N)c1c(Cl)ccc(F)c1Cl [CRIZOTINIB]	> 30	> 30	> 30		> 30		> 10	> 10	
CC(C)Cc1ccc(C(C)C(=O)O)cc1 (stereo unspecified) [IBUPROFEN]				> 30	> 30	> 10	> 10	> 10	
OC[C@H]1O[C@@](CO)(O[C@H]2O[C@H](CO)[C@@H](O)[C@H](O)[C@H]2O)[C@@H](O)[C@@H]1O [SUCROSE]	> 30	> 30	> 30						
CC(C)c1nc(N(C)S(C)(=O)=O)nc(-c2ccc(F)cc2)c1/C=C/[C@@H](O)C[C@@H](O)CC(=O)O [ROSUVASTATIN]	> 30	> 30	> 30						
N[C@@H](CC(=O)N1CCn2c(nnc2C(F)(F)F)C1)Cc1cc(F)c(F)cc1F [SITAGLIPTIN]	> 30	> 30	> 30	> 10		> 10	> 10	> 10	
C=CC[C@@H]1/C=C(\C)C[C@H](C)C[C@H](OC)[C@H]2O[C@@](O)(C(=O)C(=O)N3CCCC[C@H]3C(=O)O[C@H](/C(C)=C/[C@@H]3CC[C@@H](O)[C@H](OC)C3)[C@H](C)[C@@H](O)CC1=O)[C@H](C)C[C@@H]2OC [TACROLIMUS ANHYDROUS]	> 30			> 30	> 30	> 10	> 10	> 10	
